Data reported in patent US6512000B1, “Aminocarbonyl-substituted benzimidazoles having tryptase-inhibitory activity” (Boehringer Ingelheim Pharma KG, priority 1999, dated 2003).
Counter-ions that a name gives are not always drawn.

Target: T1, rh beta tryptase (Homo sapiens, UniProt P20231)
T1 construct: purchased Promega
Assay: Tryptase inhibition test (cleavage of N-p-tosyl-Gly-Pro-Lys-para-nitroaniline, p-nitroaniline measured at 405 nm)
Type: biochemical
Conditions: concentration at which 50% of the tryptase enzyme activity is inhibited; substrate 0.6 mM, pH 7.4, 37° C.
In short: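 Screening at 10 μM gives percent inhibition, with IC50 derived for compounds above 70% inhibition. Enzyme: rh beta tryptase, 0.91 U/ml, pH 7.4 Tris HCl (100 mM), 5 mM Ca, 100 mg/ml heparin. After 5 min compound pre-incubation, 0.6 mM pNA substrate cleaved 5 min at 37 °C, monitored at 405 nm.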

T1 sequence (P20231 31-275): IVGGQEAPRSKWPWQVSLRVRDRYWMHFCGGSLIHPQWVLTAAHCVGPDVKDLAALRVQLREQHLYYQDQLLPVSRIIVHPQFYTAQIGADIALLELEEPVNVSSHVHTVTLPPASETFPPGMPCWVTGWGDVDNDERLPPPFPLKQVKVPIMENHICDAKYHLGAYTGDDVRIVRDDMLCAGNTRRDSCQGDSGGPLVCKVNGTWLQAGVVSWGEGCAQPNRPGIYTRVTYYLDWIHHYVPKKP

**Q.** For `Cl.Cl.Cn1c(CCc2ccc(C(=N)N)cc2)nc2cc(C(=O)N(CCN(Cc3ccccc3)Cc3ccccc3)C3CCCCC3)ccc21` [Example 2, 2-[2-(4-Amidinophenyl)ethyl]-1-methyl-benzimidazol-5-yl-carboxylic Acid-N-[2-(N,N-dibenzylamino)ethyl]-N-cyclohexyl-amide-dihydrochloride], which IC50 is on record?
**A.** Its IC50 is 153 nM.

Test system: not given
Assay: not given
Conditions: not given

**Q.** For `Cn1c(CCc2ccc(C(=N)N)cc2)nc2cc(C(=O)N(CCC(=N)N)Cc3cccnc3)ccc21` (as salt: hydrochloride) [Example 10, 2-[2-(4-Amidinophenyl)-ethyl]-1-methyl-benzimidazol-5-yl-carboxylic Acid-N-(2-amidinoethyl)-N-(3-pyridylmethyl)-amide-dihydrochloride], which melting point is on record?
**A.** Its melting point is 225 to 228 °C.

**Q.** With `CC(C)CN(CCC(=N)N)C(=O)c1ccc2c(c1)nc(CCc1ccc(C(=N)N)cc1)n2C` (as salt: hydrochloride) [Example 11, 2-[2-(4-Amidinophenyl)-ethyl]-1-methyl-benzimidazol-5-yl-carboxylic Acid-N-(2-amidinoethyl)-N-iso-butyl-amide-dihydrochloride] as the molecule, how does the melting point read?
**A.** The melting point was 204 to 210 °C.

**Q.** Which melting point does the source give for `CN(C(=O)c1ccc2c(c1)nc(CCc1ccc(C(=N)N)cc1)n2C)c1cccnc1` (as salt: hydrochloride) [Example 18, 2-[2-(4-Amidinophenyl)-ethyl]-1-methyl-benzimidazol-5-yl-carboxylic Acid-N-methyl-N-(3-pyridyl)-amide-hydrochloride] here?
**A.** The melting point was over 220 °C.

**Q.** With `Cn1c(CCc2ccc(C(=N)N)cc2)nc2cc(C(=O)N(CCC(=N)N)CCc3ccccc3)ccc21` (as salt: hydrochloride) [Example 24, 2-[2-(4-Amidinophenyl)-ethyl]-1-methyl-benzimidazol-5-yl-carboxylic Acid-N-(2-amidinoethyl)-N-(2-phenylethyl)-amide-dihydrochloride] as the molecule, how does the melting point read?
**A.** The melting point was 185 to 190 °C.

**Q.** Which melting point does the source give for `Cn1c(CCc2ccc(C(=N)N)cc2)nc2cc(C(=O)N(CCC(=N)N)C3CCCCCCC3)ccc21` (as salt: hydrochloride) [Example 25, 2-[2-(4-Amidinophenyl)-ethyl]-1-methyl-benzimidazol-5-yl-carboxylic Acid-N-(2-amidinoethyl)-N-cyclooctyl-amide-dihydrochloride] here?
**A.** The melting point was 200 to 210 °C.

**Q.** Which melting point does the source give for `Cc1ccc(N(CCC(=N)N)C(=O)c2ccc3c(c2)nc(CCc2ccc(C(=N)N)cc2)n3C)cc1` (as salt: hydrochloride) [Example 26, 2-[2-(4-Amidinophenyl)-ethyl]-1-methyl-benzimidazol-5-yl-carboxylic Acid-N-(2-amidinoethyl)-N-(4-methyl-phenyl)-amide-dihydrochloride] here?
**A.** Its melting point is 222 to 225 °C.

**Q.** With `CC(C)N(CCC(=N)N)C(=O)c1ccc2c(c1)nc(CCc1ccc(C(=N)N)cc1)n2C` (as salt: hydrochloride) [Example 27, 2-[2-(4-Amidinophenyl)-ethyl]-1-methyl-benzimidazol-5-yl-carboxylic Acid-N-(2-amidinoethyl)-N-iso-propyl-amide-dihydrochloride] as the molecule, how does the melting point read?
**A.** Its melting point is 195 to 200 °C.

**Q.** With `Cn1c(CCc2ccc(CN)cc2)nc2cc(C(=O)NCCC(c3ccccc3)c3ccccc3)ccc21` (as salt: hydrochloride) [Example 40, 2-[2-(4-Aminomethyl-phenyl)-ethyl]-1-methyl-benzimidazol-5-yl-carboxylic Acid-N-(3,3-diphenylpropyl)-amide-dihydrochloride] as the molecule, how does the melting point read?
**A.** Its melting point is 140 °C.

**Q.** With `Cn1c(CCc2ccc(CN)cc2)nc2cc(C(=O)N(CCC(c3ccccc3)c3ccccc3)Cc3ccc(CN)cc3)ccc21` (as salt: hydrochloride) [Example 43, 2-[2-(4-Aminomethyl-phenyl)-ethyl]-1-methyl-benzimidazol-5-yl-carboxylic Acid-N-(4-aminomethylbenzyl)-N-(3,3-diphenylpropyl)-amide-dihydrochloride] as the molecule, how does the melting point read?
**A.** The melting point was 140 °C.

**Q.** For `Cl.Cl.Cn1c(CCc2ccc(C(=N)N)cc2)nc2cc(C(=O)N(CCN(Cc3ccccc3)Cc3ccccc3)C3CCCCC3)ccc21` [Example 2, 2-[2-(4-Amidinophenyl)ethyl]-1-methyl-benzimidazol-5-yl-carboxylic Acid-N-[2-(N,N-dibenzylamino)ethyl]-N-cyclohexyl-amide-dihydrochloride], which melting point is on record?
**A.** Its melting point is 140 to 148 °C.

**Q.** For `Cn1c(CCc2ccc(C(=N)N)cc2)nc2cc(C(=O)NC(Cc3ccc(C(=N)N)cc3)C(=O)O)ccc21` (stereo not drawn) [Example 30, 2-{2-[2-(4-Amidinophenyl)-ethyl]-1-methyl-benzimidazol-5-yl-carbonylamino}-3-(4-amidinophenyl)-propionic Acid-diformate], which melting point is on record?
**A.** The melting point was 165 °C.
